# Reference: patent US20230089368A1, “POLYAROMATIC UREA DERIVATIVES AND THEIR USE IN THE TREATMENT OF MUSCLE DISEASES” (ANAGENESIS BIOTECHNOLOGIES S.A.S., priority 2019, published 2023)
# Columns and labels:
# [1] = tested on: satellite-like cells (Pax7-positive cells) in hMP; test: Myotube assay: Pax7-positive (satellite-like) cell quantification; type: cell-based, human; parameters: key to Pax7% (pool of Pax7-positive cells) / Pax7: −: Depletes the pool of cells, while positively affects the myotubes; +: Maintains or increases the pool of cells, with at least 1 of the highest concentration known to be cytotoxic; ++: Maintains or increases the pool of cells, without any toxicity; settings: myotube assay, compounds incubated 3 days
# Summary of the method: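 DMD hiPSC-derived muscle progenitors (hMP) proliferated 4 days, then plated on collagen I in K5 medium with 5 μM Y-27632. Compound added at 1.5 nM–30 μM for 3 days at 37° C, then cells fixed and immunostained. Pax7-positive cells counted as percentage of total nuclei, duplicates averaged.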
# [2] = tested on: muscle progenitors (hMP) from DMD hiPSC or WT hiPSC; test: Myotube assay: myogenic activity (total myotube area per well); type: cell-based, human; settings: Homo sapiens, 72 h, myotube assay, compounds incubated 3 days; for Emax: read-out: MA (normalized Myotube Area, efficacy)
# Summary of the method: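 DMD or WT hiPSC-derived muscle progenitors plated on collagen I in K5 medium with 5 μM Y-27632, treated with compound (1.5 nM–30 μM) for 3 days at 37° C. Cells were fixed, stained for alpha-actinin and imaged for total myotube area per well. EC50 and normalized myotube area (MA) taken from duplicate-averaged data.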
Structure (SMILES),Pax7% (pool of Pax7-positive cells) [1],Emax [2] [%],"EC50 ([2]; 10 points dose-response 1.5 nM to 30 μM, read-out: EC50 (myogenic activity, half-maximal generation of myotubes)) [nM]"
"CC(C)(C)c1cc(NC(=O)Nc2ccc(Oc3ccnc4[nH]c(=O)cnc34)cc2F)[nH]n1 [(h), 1-(3-(tert-butyl)-1H-pyrazol-5-yl)-3-(2-fluoro-4-((3-oxo-3,4-dihydropyrido[2,3-b]pyrazin-8-yl)oxy)phenyl)urea]",+,25 to 50,
"CC(C)Cc1cc(NC(=O)Nc2ccc(Oc3ccnc4[nH]c(=O)cnc34)cc2F)n(-c2ccccc2)n1 [(g), 1-(2-fluoro-4-((3-oxo-3,4-dihydropyrido[2,3-b]pyrazin-8-yl)oxy)phenyl)-3-(3-isobutyl-1-phenyl-1H-pyrazol-5-yl)urea]",+,≥ 75,
"CNC(=O)c1cc(Oc2ccc(NC(=O)Nc3cc(C(C)(C)C)nn3-c3ccccc3)c(SC)c2)ccn1 [(br), 4-(4-(3-(3-(tert-butyl)-1-phenyl-1H-pyrazol-5-yl)ureido)-3-(methylthio)phenoxy)-N-methylpicolinamide]",++,≥ 75,
"CCOC(=O)Nc1cc(Oc2ccc(NC(=O)Nc3cc(C(C)(C)C)no3)c3ccccc23)ccn1 [(db), Ethyl (4-((4-(3-(3-(tert-butyl)isoxazol-5-yl)ureido)naphthalen-1-yl)oxy)pyridin-2-yl)carbamate]",+,≥ 75,
"CSc1cc(Oc2ccnc3[nH]c(=O)cnc23)ccc1NC(=O)Nc1cc(C(C)(C)C)nn1-c1cccc(F)c1 [(bw), 1-(3-(tert-butyl)-1-(3-fluorophenyl)-1H-pyrazol-5-yl)-3-(2-(methylthio)-4-((3-oxo-3,4-dihydropyrido[2,3-b]pyrazin-8-yl)oxy)phenyl)urea]",++,≥ 75,
"CSc1cc(Oc2ncnc3[nH]c(=O)cnc23)ccc1NC(=O)Nc1cc(C(C)(C)C)nn1-c1ccccc1 [(bv), 1-(3-(tert-butyl)-1-phenyl-1H-pyrazol-5-yl)-3-(2-(methylthio)-4-((7-oxo-7,8-dihydropteridin-4-yl)oxy)phenyl)urea]",++,≥ 75,
"CC(C)(C)c1cc(NC(=O)Nc2cc(Oc3ccnc4[nH]c(=O)cnc34)ccc2F)n(-c2ccccc2)n1 [(cq), 1-(3-(tert-butyl)-1-phenyl-1H-pyrazol-5-yl)-3-(2-fluoro-5-((3-oxo-3,4-dihydropyrido[2,3-b]pyrazin-8-yl)oxy)phenyl)urea]",++,≥ 75,
"CSc1cc(Oc2ccnc3[nH]c(=O)cnc23)ccc1NC(=O)Nc1cc(C(C)(C)C)nn1-c1ccc(Cl)cc1 [(ao), 1-(3-(tert-butyl)-1-(4-chlorophenyl)-1H-pyrazol-5-yl)-3-(2-(methylthio)-4-((3-oxo-3,4-dihydropyrido[2,3-b]pyrazin-8-yl)oxy)phenyl)urea]",++,≥ 75,
"O=C(Nc1ccc(Oc2ccnc3[nH]c(=O)cnc23)cc1F)Nc1c2c(nn1-c1ccccc1)CCC2 [(x), 1-(2-fluoro-4-((3-oxo-3,4-dihydropyrido[2,3-b]pyrazin-8-yl)oxy)phenyl)-3-(2-phenyl-2,4,5,6-tetrahydrocyclopenta[c]pyrazol-3-yl)urea]",++,25 to 50,
"CSc1cc(Oc2ccncc2)ccc1NC(=O)Nc1cc(C(C)(C)C)nn1-c1ccccc1 [(dk), 1-(3-(tert-butyl)-1-phenyl-1H-pyrazol-5-yl)-3-(2-(methylthio)-4-(pyridin-4-yloxy)phenyl)urea]",++,25 to 50,
"CC(C)(C)c1cc(NC(=O)Nc2ccc(Oc3ccnc4[nH]c(=O)cnc34)cc2F)sn1 [(q), 1-(3-(tert-butyl)isothiazol-5-yl)-3-(2-fluoro-4-((3-oxo-3,4-dihydropyrido[2,3-b]pyrazin-8-yl)oxy)phenyl)urea]",++,50 to 75,
"CC(C)(C)c1cc(NC(=O)Nc2cccc(Oc3ccnc4[nH]c(=O)cnc34)c2F)n(-c2ccccc2)n1 [(cw), 1-(3-(tert-butyl)-1-phenyl-1H-pyrazol-5-yl)-3-(2-fluoro-3-((3-oxo-3,4-dihydropyrido[2,3-b]pyrazin-8-yl)oxy)phenyl)urea]",++,≥ 75,
"CSc1cc(Oc2ccnc3c2CCC(=O)N3)ccc1NC(=O)Nc1ncc(C(C)(C)C)s1 [(cb), 1-(5-(tert-butyl)thiazol-2-yl)-3-(2-(methylthio)-4-((7-oxo-5,6,7,8-tetrahydro-1,8-naphthyridin-4-yl)oxy)phenyl)urea]",++,≥ 75,
"CSc1cc(Oc2ccnc3[nH]c(=O)cnc23)ccc1NC(=O)Nc1nc(-c2ccc(F)c(F)c2)cs1 [(ax), 1-(4-(3,4-difluorophenyl)thiazol-2-yl)-3-(2-(methylthio)-4-((3-oxo-3,4-dihydropyrido[2,3-b]pyrazin-8-yl)oxy)phenyl)urea]",++,50 to 75,
"CCOC(=O)Nc1cc(Oc2ccc(NC(=O)Nc3ncc(C(C)(C)C)s3)c3ccccc23)ccn1 [(dc), Ethyl (4-((4-(3-(5-(tert-butyl)thiazol-2-yl)ureido)naphthalen-1-yl)oxy)pyridin-2-yl)carbamate]",+,≥ 75,
"CSc1cc(Oc2ccnc3[nH]c(=O)cnc23)ccc1NC(=O)Nc1cc(C(C)(C)C)nn1-c1cccc(Cl)c1 [(as), 1-(3-(tert-butyl)-1-(3-chlorophenyl)-1H-pyrazol-5-yl)-3-(2-(methylthio)-4-((3-oxo-3,4-dihydropyrido[2,3-b]pyrazin-8-yl)oxy)phenyl)urea]",+,≥ 75,
"CC(C)(C)c1cc(NC(=O)Nc2ccc(Oc3ccnc4[nH]c(=O)cnc34)c3ccccc23)n(-c2ccc3ncccc3c2)n1 [(bb), 1-(3-(tert-butyl)-1-(quinolin-6-yl)-1H-pyrazol-5-yl)-3-(4-((3-oxo-3,4-dihydropyrido[2,3-b]pyrazin-8-yl)oxy)naphthalen-1-yl)urea]",+,≥ 75,
"CSc1cc(Oc2ccnc3c2CCC(=O)N3)ccc1NC(=O)Nc1cncc(C(F)(F)F)c1 [(cg), 1-(2-(methylthio)-4-((7-oxo-5,6,7,8-tetrahydro-1,8-naphthyridin-4-yl)oxy)phenyl)-3-(5-(trifluoromethyl)pyridin-3-yl)urea]",−,≥ 75,
"CSc1cc(Oc2ccnc3[nH]c(=O)cnc23)ccc1NC(=O)Nc1cc(C(C)(C)C)nn1-c1ccc(F)c(Cl)c1 [(cm), 1-(3-(tert-butyl)-1-(3-chloro-4-fluorophenyl)-1H-pyrazol-5-yl)-3-(2-(methylthio)-4-((3-oxo-3,4-dihydropyrido[2,3-b]pyrazin-8-yl)oxy)phenyl)urea]",+,≥ 75,
"CCOC(=O)Nc1cc(Oc2ccc(NC(=O)Nc3cc(C(C)(C)C)nn3-c3ccccc3)c3ccccc23)ccn1 [(da), Ethyl (4-((4-(3-(3-(tert-butyl)-1-phenyl-1H-pyrazol-5-yl)ureido)naphthalen-1-yl)oxy)pyridin-2-yl)carbamate]",+,≥ 75,
"COc1ccc(-n2nc(C(C)(C)C)cc2NC(=O)Nc2ccc(Oc3ccnc4[nH]c(=O)cnc34)cc2SC)cc1 [(aj), 1-(3-(tert-butyl)-1-(4-methoxyphenyl)-1H-pyrazol-5-yl)-3-(2-(methylthio)-4-((3-oxo-3,4-dihydropyrido[2,3-b]pyrazin-8-yl)oxy)phenyl)urea]",++,≥ 75,500 to 1000
"CSc1cc(Oc2ccnc3c2CCC(=O)N3)ccc1NC(=O)Nc1cc(C(C)(C)C)nn1-c1ccc(C)cc1 [(by), 1-(3-(tert-butyl)-1-(p-tolyl)-1H-pyrazol-5-yl)-3-(2-(methylthio)-4-((7-oxo-5,6,7,8-tetrahydro-1,8-naphthyridin-4-yl)oxy)phenyl)urea]",+,≥ 75,
"CC(C)c1cc(Oc2ccnc3[nH]c(=O)cnc23)ccc1NC(=O)Nc1cc(C(C)(C)C)nn1-c1ccccc1 [(bk), 1-(3-(tert-butyl)-1-phenyl-1H-pyrazol-5-yl)-3-(2-isopropyl-4-((3-oxo-3,4-dihydropyrido[2,3-b]pyrazin-8-yl)oxy)phenyl)urea]",++,≥ 75,
"CSc1cc(Oc2ccnc3[nH]c(=O)cnc23)ccc1NC(=O)Nc1nnc(C(C)(C)C)o1 [(cj), 1-(5-(tert-butyl)-1,3,4-oxadiazol-2-yl)-3-(2-(methylthio)-4-((3-oxo-3,4-dihydropyrido[2,3-b]pyrazin-8-yl)oxy)phenyl)urea]",+,≥ 75,
"CSc1cc(Oc2cccc3[nH]c(=O)cnc23)ccc1NC(=O)Nc1cc(C(C)(C)C)nn1-c1ccccc1 [(bu), 1-(3-(tert-butyl)-1-phenyl-1H-pyrazol-5-yl)-3-(2-(methylthio)-4-((2-oxo-1,2-dihydroquinoxalin-5-yl)oxy)phenyl)urea]",++,25 to 50,
"CSc1cc(Oc2ccnc3c2OCCN3)ccc1NC(=O)Nc1cc(C(C)(C)C)nn1-c1ccccc1 [(cy), 1-(3-(tert-butyl)-1-phenyl-1H-pyrazol-5-yl)-3-(4-((3,4-dihydro-2H-pyrido[3,2-b][1,4]oxazin-8-yl)oxy)-2-(methylthio)phenyl)urea]",+,≥ 75,
